Drawing on ChEMBL document CHEMBL4392871, “Baraphenazines A-G, Divergent Fused Phenazine-Based Metabolites from a Himalayan Streptomyces” (J Nat Prod, 2019), this text covers Activity, MIC and IC50 for seven molecules.

Values after ≈ are worked out from the molar mass of the structure shown.

One data set concerns Ambystoma mexicanum. In words: Toxicity in axolotl at <=10 uM by embryo tail regeneration assay. The conditions noted are these: in vivo. Type of data set: organism-based.
The subject of a further data set is Staphylococcus aureus. In words: Antimicrobial activity against Staphylococcus aureus ATCC 6538 incubated for 16 to 48 hrs. Type of data set: functional.
The subject of another data set is Salmonella enterica. Kind of data set: Antimicrobial activity against Salmonella enterica ATCC 10708 incubated for 16 to 48 hrs. In kind it is functional.
Another data set has as its system Escherichia coli. Kind of data set: Antimicrobial activity against Escherichia coli NRRL B-3708 incubated for 16 to 48 hrs. Type of data set: functional.
A further data set concerns Mycolicibacterium aurum. In words: Antimicrobial activity against Mycobacterium aurum ATCC 23366 incubated for 16 to 48 hrs. Type of data set: functional.
A further data set has as its system PC-3. In words: Cytotoxicity in human PC3 cells assessed as reduction in cell viability incubated for 48 hrs. In kind it is functional, cell-based. The conditions noted are these: PC-3, 48 h.
A further data set has as its system Bacillus subtilis. In words: Antimicrobial activity against Bacillus subtilis ATCC 6633 incubated for 16 to 48 hrs. In kind it is functional.
The next data set deals with Saccharomyces cerevisiae. Kind of data set: Antimicrobial activity against Saccharomyces cerevisiae ATCC 204508 incubated for 16 to 48 hrs. In kind it is functional.
Another data set concerns A549. In words: Cytotoxicity in human A549 cells assessed as reduction in cell viability incubated for 48 hrs. The conditions noted are these: A549, 48 h. Type of data set: functional, cell-based.
The next data set relates to Micrococcus luteus. Kind of data set: Antimicrobial activity against Micrococcus luteus NRRL B-287 incubated for 16 to 48 hrs. Type of data set: functional.

For the molecule `O=C(O)C1(O)O[C@@H]2[C@@H](Cc3nc4c(O)cccc4nc3[C@@H]2O)[C@H]1c1c[nH]c2ccccc12` (stereo not given in full), the Activity entry in the data set on Ambystoma mexicanum is reported as “Non-Toxic”. Besides, the minimum inhibitory concentration (MIC) in the data set with Staphylococcus aureus, in the data set with Salmonella enterica, in the data set on Escherichia coli, with Mycolicibacterium aurum, in the data set on Bacillus subtilis and with Saccharomyces cerevisiae was over 120 µM each time. Besides, in the data set on Micrococcus luteus, the MIC (as a rule, the lowest concentration that inhibits growth of the organism) was over 120 µM. Further, the IC50 in the data set on PC-3 and in the data set with A549 was over 50 µM in each case.

Take `O=C(O)C1(O)O[C@@H]2[C@@H](Cc3nc4c(O)cccc4nc3[C@@H]2O)[C@H]1c1ccc(O)cc1` (stereo not given in full): the Activity entry in the data set on Ambystoma mexicanum is “Non-Toxic”. The MIC in the data set on Staphylococcus aureus, in the data set with Salmonella enterica, with Escherichia coli, against Mycolicibacterium aurum, with Bacillus subtilis and against Saccharomyces cerevisiae was over 120 µM each time. The molecule further had an MIC against Micrococcus luteus of over 120 µM. The IC50 with PC-3 and in the data set on A549 was over 50 µM each time.

As for `O=C(O)c1ccc(O)c2nc3c4c(ccc3nc12)[C@@H]1Cc2nc3cccc(O)c3nc2[C@H](O4)[C@H]1O`, the Activity entry in the data set on Ambystoma mexicanum is reported as “Non-Toxic”. Also, the MIC with Staphylococcus aureus, against Salmonella enterica, against Escherichia coli, in the data set on Mycolicibacterium aurum, in the data set on Bacillus subtilis and in the data set on Saccharomyces cerevisiae was over 120 µM each time. In addition, the MIC against Micrococcus luteus was over 120 µM. In addition, the IC50 with PC-3 and in the data set with A549 was over 50 µM throughout.

For `O=C(O)c1cccc2nc3c4c(ccc3nc12)[C@H]1c2nc3c(O)cccc3nc2C[C@@H]4[C@H]1O`, the Activity entry in the data set on Ambystoma mexicanum is given as “Non-Toxic”. Also, the MIC against Staphylococcus aureus, against Salmonella enterica, with Escherichia coli, in the data set with Mycolicibacterium aurum, against Bacillus subtilis and with Saccharomyces cerevisiae was over 120 µM in each case. The molecule also registered an MIC with Micrococcus luteus of over 120 µM. Besides, the IC50 in the data set on PC-3 and with A549 was over 50 µM throughout.

With `O=C(O)c1cc2c(c3nc4cccc(O)c4nc13)[C@@H]1Cc3nc4cccc(O)c4nc3[C@@](O)(C1)O2`, the Activity result in the data set with Ambystoma mexicanum is “Non-Toxic”. Moreover, the MIC with Staphylococcus aureus, with Salmonella enterica, in the data set with Escherichia coli, with Mycolicibacterium aurum, with Bacillus subtilis and against Saccharomyces cerevisiae was over 120 µM in each case. The molecule also gave an MIC with Micrococcus luteus of over 120 µM. For the same molecule, the IC50 with PC-3 and in the data set with A549 was over 50 µM in each case.

`NC(=O)c1cccc2nc3c4c(ccc3nc12)[C@H]1c2nc3c(O)cccc3nc2C[C@@H]4[C@@H]1O`: in the data set with Ambystoma mexicanum, the Activity entry is on record as “Non-Toxic”. Moreover, the MIC against Staphylococcus aureus is 4 µM (≈ 1.74 µg/mL); against Salmonella enterica, over 120 µM; in the data set with Escherichia coli, over 120 µM; against Mycolicibacterium aurum it was 30 µM (≈ 13.1 µg/mL); in the data set on Bacillus subtilis, 7.5 µM (≈ 3.27 µg/mL); against Saccharomyces cerevisiae, over 120 µM. This molecule had an MIC with Micrococcus luteus of 7.5 µM (≈ 3.27 µg/mL). Moreover, the IC50 (commonly the concentration at which inhibition is half-maximal) was determined as 4.7 µM with PC-3 and 2.4 µM in the data set with A549.

`O=C(O)C1(O)O[C@@H]2[C@@H](Cc3nc4c(O)cccc4nc3[C@H]2O)[C@H]1c1c[nH]c2ccccc12` (stereo not given in full): in the data set on Ambystoma mexicanum, the Activity entry is on record as “Non-Toxic”. The MIC against Staphylococcus aureus, against Salmonella enterica, in the data set with Escherichia coli, in the data set with Mycolicibacterium aurum, with Bacillus subtilis and in the data set with Saccharomyces cerevisiae was over 120 µM each time. Besides, in the data set on Micrococcus luteus, the MIC is over 120 µM. Besides, the IC50 in the data set with PC-3 and in the data set with A549 was over 50 µM throughout.
